The test system of series [1] is Calvarial osteoblast. Put plainly: Induction of osteogenesis in mouse Osteoblast cells assessed as ALP activity at 0.001 to 100 uM measured for 24 to 48 hrs. Format: functional. The conditions noted are these: dose 0.001-100 µM, time 24-48 hrs.
Series [2] concerns Calvarial osteoblast. Description: Induction of osteogenesis in mouse Osteoblast cells assessed as ALP activity at 1 to 1000 pM measured for 24 to 48 hrs. Format: functional, cell-based. The conditions noted are these: dose 1-1000 pM, time 24-48 hrs.
Series [3] deals with Calvarial osteoblast. Put plainly: Induction of osteogenesis in mouse Osteoblast cells assessed as ALP activity at 10 nM measured for 24 to 48 hrs. The following applies: time 24-48 hrs. Format: functional, cell-based.
Series [4] deals with Calvarial osteoblast. Put plainly: Induction of osteogenesis in mouse Osteoblast cells assessed as ALP activity at 100 to 1000000 pM measured for 24 to 48 hrs. Format: functional, cell-based. The following applies: dose 100-1e+06 pM, time 24-48 hrs.
The test system of series [5] is Calvarial osteoblast. Description: Induction of osteogenesis in mouse Osteoblast cells assessed as ALP activity at 0.001 to 100 uM measured for 24 hrs. Format: functional, cell-based. The conditions noted are these: dose 0.001-100 µM.
Series [6] deals with Calvarial osteoblast. Description: Cytotoxicity against mouse Osteoblast cells assessed as reduction in cell viability at 0.000001 to 1 uM measured for 24 to 48 hrs by MTT assay. It counts as toxicity, cell-based. The conditions noted are these: dose lower 1e-06 µM, time lower 24 hrs, dose upper 1 µM, time upper 48 hrs.
Series [7] has as its system Calvarial osteoblast. Description: Induction of osteogenesis in mouse Osteoblast cells assessed as ALP activity at 0.001 to 100 uM measured for 48 hrs. The following applies: dose 0.001-100 µM. It counts as functional, cell-based.
Series [8] has as its system Calvarial osteoblast. Put plainly: Induction of osteogenesis in mouse Osteoblast cells assessed as ALP activity at 100 pM measured for 48 hrs. It counts as functional, cell-based.
Series [9] has as its system Calvarial osteoblast. Put plainly: Induction of osteoblast differentiation in mouse calvarial osteoblasts cells assessed as ALP activity at 1 to 10000 pM measured for 7 days. It counts as functional, cell-based. The following applies: dose 1-10000 pM, time 7.0 day.
Series [10] has as its system Calvarial osteoblast. Description: Cytotoxicity against mouse Osteoblast cells assessed as reduction in cell viability at 100 uM measured for 24 to 48 hrs by MTT assay. It counts as toxicity, cell-based. The following applies: time 24-48 hrs.
Series [11] in a line: Induction of osteoblast mineralization in mouse Bone marrow cells assessed as increase in mineralized nodule formation at 10 nM replaced with media every 48 hrs for 21 days by Alizarin Red staining-based microscopic analysis. It counts as functional, Bone marrow cell. The following applies: time 21 day.
The subject of series [12] is Calvarial osteoblast. Description: Induction of osteogenesis in mouse Osteoblast cells assessed as ALP activity at 10 nM measured for 48 hrs. Format: functional, cell-based.
A short description of series [13]: Induction of osteoblast mineralization in mouse Bone marrow cells assessed as increase in mineralized nodule formation at 100 pM replaced with media every 48 hrs for 21 days by Alizarin Red staining-based microscopic analysis. Format: functional, Bone marrow cell. The conditions noted are these: time 21 day.
The test system of series [14] is Calvarial osteoblast. Description: Induction of osteoblast differentiation in mouse calvarial osteoblasts cells assessed as ALP activity at 100 to 10000 pM measured for 7 days. The conditions noted are these: dose 100-10000 pM, time 7.0 day. Format: functional, cell-based.
The test system of series [15] is Calvarial osteoblast. Description: Induction of osteogenesis in mouse Osteoblast cells assessed as fold increase in RUNX2 gene expression at 100 to 10000 pM by qRT-PCR analysis. Format: functional. The conditions noted are these: dose 100-10000 pM.

Molecules are shown by their SMILES. Calls of active or inactive are those of the source. The rule behind the calls is not given here.

For the compound `CCn1c(-c2cc(C)c3c(c2)C(c2c(C)n(C)c4ccccc24)C(C#N)=C(N)O3)nc2ccccc2c1=O` (configuration not stated), the Activity in the series with Calvarial osteoblast [1] worked out at 14%.

As for `Cc1[nH]c2ccc(Cl)cc2c1C1C(C#N)=C(N)Oc2c1cc(-c1nc3ccccc3c(=O)[nH]1)cc2C(C)(C)C` (configuration not stated), the Activity in the series on Calvarial osteoblast [1] was 2%.

Consider `CCn1c(-c2cc(C)c3c(c2)CC(C#N)=C(N)O3)nc2ccccc2c1=O`, for which the outcome in the series with Calvarial osteoblast [1], in the series with Calvarial osteoblast [2] and in the series on Calvarial osteoblast [3] was inactive.

For `CCn1c(-c2cc(C)c3c(c2)C(c2c(C)n(CC)c4ccccc24)C(C#N)=C(N)O3)nc2ccccc2c1=O` (configuration not stated), the result in the series on Calvarial osteoblast [1] was inactive.

In the case of `Cc1[nH]c2ccc(Cl)cc2c1C1C(C#N)=C(N)Oc2c(C(C)C)cc(-c3nc4ccccc4c(=O)n3C)cc21` (configuration not stated), the Activity in the series on Calvarial osteoblast [1] was determined as 5%.

Turning to `CCc1cc(-c2nc3ccccc3c(=O)n2C)cc2c1OC(N)=C(C#N)C2c1c(C)[nH]c2ccc(Cl)cc12` (configuration not stated), in the series on Calvarial osteoblast [1], the Activity turned out to be 1%.

`Cc1[nH]c2ccccc2c1C1C(C#N)=C(N)Oc2ccccc21` (configuration not stated): the outcome with Calvarial osteoblast [1], in the series on Calvarial osteoblast [2] and in the series on Calvarial osteoblast [3] was inactive.

With `CCCc1cc(-c2nc3ccccc3c(=O)n2CC)cc2c1OC(N)=C(C#N)C2c1c(C)[nH]c2ccccc12` (configuration not stated), the Activity with Calvarial osteoblast [1] is given as 12%.

For `COc1ccc2[nH]c(C)c(C3C(C#N)=C(N)Oc4c(C)cc(-c5nc6ccccc6c(=O)n5C)cc43)c2c1` (configuration not stated), the Activity with Calvarial osteoblast [1] turned out to be 13%.

For `CCn1c(-c2cc3c(c(C(C)(C)C)c2)OC(N)=C(C#N)C3c2c(C)[nH]c3ccccc23)nc2ccccc2c1=O` (configuration not stated), in the series on Calvarial osteoblast [1], the Activity stood at 9%.

In the case of `Cc1cc2ccccc2[nH]1`, the outcome with Calvarial osteoblast [1], in the series with Calvarial osteoblast [2], in the series on Calvarial osteoblast [3] and in the series with Calvarial osteoblast [4] was inactive.

In the case of `CCc1cc(-c2nc3ccccc3c(=O)[nH]2)cc2c1OC(N)=C(C#N)C2c1c(C)[nH]c2ccccc12` (configuration not stated), the result in the series with Calvarial osteoblast [1] was inactive.

As for `Cc1[nH]c2ccccc2c1C1C(C#N)=C(N)Oc2c1cc(-c1nc3ccccc3c(=O)[nH]1)cc2C(C)(C)C` (configuration not stated), in the series on Calvarial osteoblast [1], the outcome was inactive.

As for `CCCc1cc(-c2nc3ccccc3c(=O)n2C)cc2c1OC(N)=C(C#N)C2c1c(C)[nH]c2ccccc12` (configuration not stated), the result in the series on Calvarial osteoblast [1] was inactive.

Consider `Cc1[nH]c2ccccc2c1C1C(C#N)=C(N)Oc2c(C(C)C)cc(-c3nc4ccccc4c(=O)n3C)cc21` (configuration not stated), for which the Activity in the series on Calvarial osteoblast [1] is 1%.

Take `CCn1c(-c2cc3c(c(C(C)(C)C)c2)OC(N)=C(C#N)C3c2c(C)[nH]c3ccc(OC)cc23)nc2ccccc2c1=O` (configuration not stated): the Activity in the series on Calvarial osteoblast [1] came to 1%.

For `CCn1c(C)nc2ccccc2c1=O`, the Activity with Calvarial osteoblast [1] came out at 1%. The result in the series with Calvarial osteoblast [2], in the series with Calvarial osteoblast [3] and in the series with Calvarial osteoblast [4] was inactive.

For `CCCc1cc(-c2nc3ccccc3c(=O)n2C)cc2c1OC(N)=C(C#N)C2c1c(C)[nH]c2ccc(Cl)cc12` (configuration not stated), the Activity with Calvarial osteoblast [1] is recorded as 12%.

In the case of `CCc1cc(-c2nc3ccccc3c(=O)n2C)cc2c1OC(N)=C(C#N)C2c1c(C)[nH]c2ccccc12` (configuration not stated), in the series on Calvarial osteoblast [1], the Activity is reported as 7%.

On to `COc1ccc2[nH]c(C)c(C3C(C#N)=C(N)Oc4c3cc(-c3nc5ccccc5c(=O)[nH]3)cc4C(C)(C)C)c2c1` (configuration not stated), for which, in the series on Calvarial osteoblast [1], the outcome was inactive.

As to `N#CC1=Cc2ccccc2OC1N` (configuration not stated), the Activity in the series on Calvarial osteoblast [1] came to 18%.

As for `CCc1cc(-c2nc3ccccc3c(=O)n2CC)cc2c1OC(N)=C(C#N)C2c1c(C)[nH]c2ccccc12` (configuration not stated), the result in the series with Calvarial osteoblast [5] and in the series on Calvarial osteoblast [9] was inactive. Moreover, the Activity result is listed as “Non-Toxic” with Calvarial osteoblast [6], 38% with Calvarial osteoblast [1] and “Toxic” in the series on Calvarial osteoblast [10]. Moreover, the outcome in the series on Calvarial osteoblast [7] and in the series on Calvarial osteoblast [8] was Active.

With `COc1ccc2[nH]c(C)c(C3C(C#N)=C(N)Oc4c3cc(-c3nc5ccccc5c(=O)n3C)cc4C(C)(C)C)c2c1` (configuration not stated), in the series with Calvarial osteoblast [5], the outcome was inactive. Moreover, the Activity entry in the series with Calvarial osteoblast [6] was “Non-Toxic”; in series [11], 20%; in the series with Calvarial osteoblast [1], 19%; in [13] it was 10%; in the series on Calvarial osteoblast [10], “Toxic”. Further, the outcome in the series with Calvarial osteoblast [7], with Calvarial osteoblast [12] and with Calvarial osteoblast [14] was Active.

`COc1ccc2[nH]c(C)c(C3C(C#N)=C(N)Oc4c(C(C)C)cc(-c5nc6ccccc6c(=O)n5C)cc43)c2c1` (configuration not stated): the result in the series on Calvarial osteoblast [1] was inactive.

Consider `Cc1cc(-c2nc3ccccc3c(=O)n2C)cc2c1OC(N)=C(C#N)C2c1c(C)[nH]c2ccc(Cl)cc12` (configuration not stated), for which the outcome with Calvarial osteoblast [5] and with Calvarial osteoblast [9] was inactive. Moreover, the figures for the Activity result in the series with Calvarial osteoblast [6], in the series with Calvarial osteoblast [1] and with Calvarial osteoblast [10] were “Non-Toxic”, 25% and “Toxic”, respectively. The outcome with Calvarial osteoblast [7] and in the series on Calvarial osteoblast [8] was Active.

`Cc1cc(-c2nc3ccccc3c(=O)n2C)cc2c1OC(N)=C(C#N)C2c1c(C)[nH]c2ccccc12` (configuration not stated): the outcome in the series with Calvarial osteoblast [1] was inactive.

Regarding `CCc1cc(-c2nc3ccccc3c(=O)n2C)cc2c1OC(N)=C(C#N)C2c1c(C)[nH]c2ccc(OC)cc12` (configuration not stated), the Activity with Calvarial osteoblast [1] is recorded as 2%.

`Cc1[nH]c2ccc(Cl)cc2c1C1C(C#N)=C(N)Oc2c1cc(-c1nc3ccccc3c(=O)n1C)cc2C(C)(C)C` (configuration not stated): the Activity in the series with Calvarial osteoblast [1] was 7%.

In the case of `CCCc1cc(-c2nc3ccccc3c(=O)n2C)cc2c1OC(N)=C(C#N)C2c1c(C)[nH]c2ccc(OC)cc12` (configuration not stated), in the series with Calvarial osteoblast [1], the Activity came to 11%. In addition, the “fold change (FC)” value in the series with Calvarial osteoblast [15] came out at 3.

Regarding `CCn1c(-c2cc(C(C)C)c3c(c2)C(c2c(C)[nH]c4ccccc24)C(C#N)=C(N)O3)nc2ccccc2c1=O` (configuration not stated), the Activity with Calvarial osteoblast [1] was 6%.

For `Cc1[nH]c2ccccc2c1C1C(C#N)=C(N)Oc2c1cc(-c1nc3ccccc3c(=O)n1C)cc2C(C)(C)C` (configuration not stated), the outcome in the series with Calvarial osteoblast [1] was inactive.
